From publication PMC8343220, “The selectivity of α‐adrenoceptor agonists for the human α1A, α1B, and α1D‐adrenoceptors” (Pharmacology Research & Perspectives, 2021)

What was measured:
[1] = system: parental CHO cell line without any transfected receptors; assay: ^3H‐cAMP accumulation, parent CHO cells without transfected receptors; format: cell-based, Chinese hamster
human α1A‐adrenoceptor [2] = target: T1, human α1A‐adrenoceptor (Homo sapiens, UniProt P35348); assay: ^3H‐cAMP accumulation in the presence of 10 μM forskolin, CHO‐α1A cells; format: cell-based
T1 construct: expressed in transfected cells; host or cells: CHO-K1
T1 sequence (P35348 1-466): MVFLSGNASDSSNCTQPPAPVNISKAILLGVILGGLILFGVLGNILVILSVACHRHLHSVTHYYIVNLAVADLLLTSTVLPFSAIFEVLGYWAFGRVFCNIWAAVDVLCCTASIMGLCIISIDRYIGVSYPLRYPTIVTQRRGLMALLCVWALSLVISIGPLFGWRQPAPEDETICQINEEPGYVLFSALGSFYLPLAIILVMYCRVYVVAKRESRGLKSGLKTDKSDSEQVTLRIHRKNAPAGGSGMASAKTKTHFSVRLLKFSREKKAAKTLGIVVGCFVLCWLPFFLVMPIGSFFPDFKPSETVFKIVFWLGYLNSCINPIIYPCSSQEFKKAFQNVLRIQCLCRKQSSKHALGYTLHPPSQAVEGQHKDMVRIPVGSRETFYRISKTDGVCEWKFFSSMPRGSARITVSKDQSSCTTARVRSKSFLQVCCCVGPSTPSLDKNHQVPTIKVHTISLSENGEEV

human α1A‐adrenoceptor [3] = target: T1, human α1A‐adrenoceptor; assay: ERK1/2‐phosphorylation (Surefire Alphascreen), CHO‐α1A cells; format: cell-based
human α1B‐adrenoceptor = target: T2, human α1B‐adrenoceptor (Homo sapiens, UniProt P35368); assay: ^3H‐prazosin whole‐cell radioligand binding, CHO‐α1B cells
T2 construct: expressed in transfected cells; host or cells: CHO-K1
T2 sequence (P35368 1-520): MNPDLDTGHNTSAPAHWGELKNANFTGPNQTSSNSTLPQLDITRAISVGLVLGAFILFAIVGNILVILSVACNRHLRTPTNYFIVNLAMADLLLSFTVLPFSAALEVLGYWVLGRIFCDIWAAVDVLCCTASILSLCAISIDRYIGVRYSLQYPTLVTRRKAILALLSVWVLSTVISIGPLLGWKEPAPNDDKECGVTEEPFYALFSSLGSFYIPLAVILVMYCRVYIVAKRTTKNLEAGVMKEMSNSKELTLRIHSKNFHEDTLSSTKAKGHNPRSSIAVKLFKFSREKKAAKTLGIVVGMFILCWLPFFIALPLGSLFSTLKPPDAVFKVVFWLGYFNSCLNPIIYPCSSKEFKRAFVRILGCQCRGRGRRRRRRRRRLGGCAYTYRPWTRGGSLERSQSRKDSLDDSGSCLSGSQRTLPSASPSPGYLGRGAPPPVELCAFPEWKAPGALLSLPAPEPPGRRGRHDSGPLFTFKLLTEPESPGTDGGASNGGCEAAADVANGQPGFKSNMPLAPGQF

[4] = system: parental CHO cell line without any transfected receptors; assay: Intracellular calcium mobilization, parent CHO cells without transfected receptors; format: cell-based, Chinese hamster
[5] = system: parental CHO cell line without any transfected receptors; assay: Forskolin‐stimulated cAMP accumulation, parent CHO cells without transfected receptors; format: cell-based, Chinese hamster
[6] = target: T3, human α1D‐adrenoceptor (full length) (Homo sapiens, UniProt P25100); assay: Intracellular free calcium mobilization, CHO‐α1D cells; format: cell-based
T3 construct: human α1D‐adrenoceptor (full length) were used; expressed in transfected cells; host or cells: CHO-K1
T3 sequence (P25100 1-572): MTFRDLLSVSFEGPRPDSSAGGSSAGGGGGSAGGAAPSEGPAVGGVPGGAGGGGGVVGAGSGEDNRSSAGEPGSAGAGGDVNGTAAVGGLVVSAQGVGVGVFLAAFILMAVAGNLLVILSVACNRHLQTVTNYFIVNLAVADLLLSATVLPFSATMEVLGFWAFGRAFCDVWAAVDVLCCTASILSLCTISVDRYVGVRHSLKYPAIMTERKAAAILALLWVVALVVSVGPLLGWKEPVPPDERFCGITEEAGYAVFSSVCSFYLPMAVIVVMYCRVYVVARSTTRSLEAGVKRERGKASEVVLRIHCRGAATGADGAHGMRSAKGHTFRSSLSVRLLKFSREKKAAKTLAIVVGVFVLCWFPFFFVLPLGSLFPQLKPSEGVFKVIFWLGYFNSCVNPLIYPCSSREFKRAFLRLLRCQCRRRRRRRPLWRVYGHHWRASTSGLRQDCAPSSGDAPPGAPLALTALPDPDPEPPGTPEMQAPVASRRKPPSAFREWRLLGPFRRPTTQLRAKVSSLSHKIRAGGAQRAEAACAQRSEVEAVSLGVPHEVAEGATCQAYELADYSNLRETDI

[7] = system: parental CHO cell line without any transfected receptors; assay: ERK1/2‐phosphorylation, parent CHO cells without transfected receptors; format: cell-based, Chinese hamster
[8] = target: T3, human α1D‐adrenoceptor (full length); assay: ^3H‐prazosin whole‐cell radioligand binding, CHO‐α1D cells
human α1A‐adrenoceptor [9] = target: T1, human α1A‐adrenoceptor; assay: Intracellular free calcium mobilization, CHO‐α1A cells; format: cell-based
human α1A‐adrenoceptor [10] = target: T1, human α1A‐adrenoceptor; assay: ^3H‐cAMP accumulation, CHO‐α1A cells; format: cell-based
[11] = target: T3, human α1D‐adrenoceptor (full length); assay: ERK1/2‐phosphorylation (Surefire Alphascreen), CHO‐α1D cells; format: cell-based
human α1A‐adrenoceptor [12] = target: T1, human α1A‐adrenoceptor; assay: ^3H‐prazosin whole‐cell radioligand binding, CHO‐α1A cells

With C=C[C@@]1(C)CC(=O)[C@]2(O)[C@@]3(C)[C@@H](O)CCC(C)(C)[C@@H]3[C@H](O)[C@H](OC(C)=O)[C@@]2(C)O1 [forskolin] the “cAMP accumulation response fold over basal” value ([1]; parent CHO cells, 10μM, n=6) was 39.5 ± 3.2 fold over basal.

With CN[C@@H](C)[C@H](O)c1ccccc1 [Ephedrine] the “cAMP accumulation % forskolin” value [1] was “No response”, the EC50 (human α1A‐adrenoceptor [2]) was 70.8 µM and the “cAMP accumulation (in presence of forskolin) Fold increase” value (human α1A‐adrenoceptor [2]; CHO‐α1A cells, fold increase of the forskolin response) was 1.70 ± 0.10 fold. For the same molecule, the EC50 (human α1A‐adrenoceptor [3]) was 7.59 µM, the “ERK1/2‐phosphorylation % PDBu” value (human α1A‐adrenoceptor [3]) was 72.7 ± 6.5% and the IC50 (human α1B‐adrenoceptor) was greater than 1000 µM. For the same molecule, the Emax ([4]; Cricetulus griseus, CHO, read-out: Intracellular calcium release % ionomycin) was 5.3 ± 1.6%, the “cAMP accumulation (in presence of forskolin) % forskolin-stim cAMP” value [5] was “No response” and the “cAMP accumulation (in presence of forskolin) Log EC50” value [5] was “No response”. For the same molecule, the “Intracellular calcium release % Ionomycin at 100 µM” value [6] was 2.6 ± 1.3%, the “ERK1/2-phosphorylation % PDBu” value [7] was “No response” and the “ERK1/2-phosphorylation Log EC50” value [7] was “No response”. For the same molecule, the “Affinity selectivity ratio α1B vs α1D” value [8] was greater than 3.7 fold, the Kd [8] was 269 µM and the EC50 (human α1A‐adrenoceptor [9]) was 3.16 µM. For the same molecule, the “Intracellular calcium release % ionomycin” value (human α1A‐adrenoceptor [9]) was 43.1 ± 1.6%, the “Log efficacy ratio KD /EC50” value (human α1A‐adrenoceptor [9]) was 1.43 and the EC50 (human α1A‐adrenoceptor [10]) was 117 µM. For the same molecule, the “cAMP accumulation % forskolin” value (human α1A‐adrenoceptor [10]; CHO‐α1A cells, % of 10 µM forskolin response) was 7.8 ± 1.3%, the “ERK1/2‐phosphorylation % PDBu at 100 µM” value [11] was 3.3 ± 2.1% and the “Affinity selectivity ratio α1A vs α1B” value (human α1A‐adrenoceptor [12]) was greater than 11.7 fold. For the same molecule, the “Affinity selectivity ratio α1A vs α1D” value (human α1A‐adrenoceptor [12]) was 3.2 fold and the Kd (human α1A‐adrenoceptor [12]) was 85.1 µM.

For COc1ccccc1N1CCN(CC2CN3C(=O)N(C)c4ccccc4C3=N2)CC1 (centres unmarked) [2-MPMDQ], the “cAMP accumulation % forskolin” value [1] was “No response”, the “Intracellular calcium release % ionomycin” value [4] was “No response” and the “cAMP accumulation (in presence of forskolin) % forskolin-stim cAMP” value [5] was “No response”. The “cAMP accumulation (in presence of forskolin) Log EC50” value [5] was “No response” and the “ERK1/2-phosphorylation % PDBu” value [7] was “No response”.
